Assay results published in ChEMBL document CHEMBL1201862, “PubChem BioAssay data set” (2004).
Activity calls are given as the source filed them.

Legend:
[1] = target: Lysine-specific demethylase 4A (Homo sapiens, UniProt O75164); assay: JMJD2A histone demethylase inhibitors, dose response, selectivity assay for GASC-1 inhibitor project, biochemical, DELFIA europium, cherry-picked samples (AID 488840)
[2] = target: T1, Tyrosine-protein phosphatase non-receptor type 22 (Homo sapiens, UniProt Q9Y2R2); format: functional
T1 sequence (Q9Y2R2 whole entry): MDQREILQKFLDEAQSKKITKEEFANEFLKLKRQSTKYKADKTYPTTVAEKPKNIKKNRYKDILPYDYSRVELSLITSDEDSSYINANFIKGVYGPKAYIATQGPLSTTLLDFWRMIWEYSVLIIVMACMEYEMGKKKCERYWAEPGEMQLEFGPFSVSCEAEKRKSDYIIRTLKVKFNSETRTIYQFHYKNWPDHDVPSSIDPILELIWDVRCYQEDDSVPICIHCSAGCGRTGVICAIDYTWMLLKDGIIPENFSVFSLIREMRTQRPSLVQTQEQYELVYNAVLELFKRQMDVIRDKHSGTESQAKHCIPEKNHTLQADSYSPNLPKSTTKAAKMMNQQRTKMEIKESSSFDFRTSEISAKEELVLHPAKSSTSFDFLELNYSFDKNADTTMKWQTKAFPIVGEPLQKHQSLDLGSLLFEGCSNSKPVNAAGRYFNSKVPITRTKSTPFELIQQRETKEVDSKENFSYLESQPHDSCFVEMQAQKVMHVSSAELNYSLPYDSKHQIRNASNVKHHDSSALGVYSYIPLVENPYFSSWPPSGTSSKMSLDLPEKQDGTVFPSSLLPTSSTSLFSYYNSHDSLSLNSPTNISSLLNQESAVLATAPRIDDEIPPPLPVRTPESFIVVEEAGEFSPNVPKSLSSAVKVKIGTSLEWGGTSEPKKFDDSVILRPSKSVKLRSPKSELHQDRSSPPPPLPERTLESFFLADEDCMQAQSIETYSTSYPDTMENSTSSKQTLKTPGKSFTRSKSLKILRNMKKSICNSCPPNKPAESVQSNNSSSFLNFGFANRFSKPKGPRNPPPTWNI

[3] = target: T1, Tyrosine-protein phosphatase non-receptor type 22; format: functional; remark: listed apart in the source
[4] = target: T2, Tyrosine-protein phosphatase non-receptor type 7 (Homo sapiens, UniProt P35236); format: functional
T2 sequence (P35236 whole entry): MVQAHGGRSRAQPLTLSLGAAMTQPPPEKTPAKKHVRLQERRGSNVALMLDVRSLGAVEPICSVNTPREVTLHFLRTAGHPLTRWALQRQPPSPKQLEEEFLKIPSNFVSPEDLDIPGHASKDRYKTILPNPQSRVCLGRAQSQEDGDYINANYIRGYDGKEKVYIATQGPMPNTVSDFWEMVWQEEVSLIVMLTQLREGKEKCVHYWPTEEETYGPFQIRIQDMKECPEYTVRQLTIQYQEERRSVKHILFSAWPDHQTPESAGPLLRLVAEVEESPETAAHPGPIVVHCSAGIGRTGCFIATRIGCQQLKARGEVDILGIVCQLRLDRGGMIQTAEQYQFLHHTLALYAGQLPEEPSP

Escherichia coli = assay: microbe, parasite or virus in culture
Streptococcus = assay: Group A Streptococcus viability loss, dose response, counter-screen for streptokinase expression inhibitor project, luminescence, BacTiterGlo (AID 1915); format: functional, organism-based;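 further: potency for reduction of bacterial viability or growth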
[5] = tested on: Streptococcus sp. 'group A'; assay: growth inhibition of control SK(-) GAS strain, dose response, counter-screen for streptokinase expression inhibitor project, luminescence, kanamycin, BacTiterGlo, confirmation (AID 1900); format: functional, organism-based
Streptokinase A = target: T3, Streptokinase A (Streptococcus pyogenes serotype M1, UniProt P10520); assay: S. pyogenes streptokinase expression inhibitors, potency, dose response, plasminogen activation absorbance, OD405 (AID 1914); format: functional, Streptococcus pyogenes M1 GAS;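 further: secreted streptokinase activity via plasminogen activation per viability signal from cell pellet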
T3 sequence (P10520 whole entry): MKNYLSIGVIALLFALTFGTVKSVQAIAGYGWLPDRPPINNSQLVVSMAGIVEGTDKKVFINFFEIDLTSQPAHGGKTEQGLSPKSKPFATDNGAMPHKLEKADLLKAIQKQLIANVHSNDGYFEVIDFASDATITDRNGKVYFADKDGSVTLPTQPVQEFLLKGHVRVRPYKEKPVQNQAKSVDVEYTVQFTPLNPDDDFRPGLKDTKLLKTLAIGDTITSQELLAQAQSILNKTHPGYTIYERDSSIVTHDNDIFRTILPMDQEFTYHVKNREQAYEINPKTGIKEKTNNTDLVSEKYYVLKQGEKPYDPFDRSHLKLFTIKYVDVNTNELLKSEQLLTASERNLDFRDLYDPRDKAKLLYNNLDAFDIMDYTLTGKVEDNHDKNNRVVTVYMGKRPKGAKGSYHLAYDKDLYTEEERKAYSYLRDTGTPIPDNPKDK

[6] = target: T4, Heat shock factor protein 1 (Mus musculus, UniProt P38532); assay: inhibition of MG132-induced HSE-luciferase signal, confirmation, cell-based, NIH3T3, luminescence, dose retest (AID 2382); format: functional;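 further: NIH3T3 fibroblasts with HSF1-driven luciferase reporter stressed by proteasome inhibitor MG132; luminescence from HSF1-driven luciferase expression after 8 hours of MG132 stress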
T4 sequence (P38532 whole entry): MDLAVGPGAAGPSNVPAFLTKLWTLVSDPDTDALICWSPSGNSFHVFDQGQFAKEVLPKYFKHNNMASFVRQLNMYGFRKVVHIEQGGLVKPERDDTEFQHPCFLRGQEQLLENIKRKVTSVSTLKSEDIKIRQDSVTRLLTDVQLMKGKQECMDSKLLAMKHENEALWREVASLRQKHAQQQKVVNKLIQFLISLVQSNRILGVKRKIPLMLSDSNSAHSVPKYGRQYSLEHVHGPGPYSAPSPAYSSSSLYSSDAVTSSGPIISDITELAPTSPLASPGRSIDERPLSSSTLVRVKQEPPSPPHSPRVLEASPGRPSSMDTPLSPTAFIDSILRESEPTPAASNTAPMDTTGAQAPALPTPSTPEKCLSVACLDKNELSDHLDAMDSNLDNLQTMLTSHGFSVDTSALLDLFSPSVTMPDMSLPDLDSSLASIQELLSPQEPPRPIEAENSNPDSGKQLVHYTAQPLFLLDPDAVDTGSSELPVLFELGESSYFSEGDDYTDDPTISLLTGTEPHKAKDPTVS

[7] = target: T5, Mannose-6-phosphate isomerase (Homo sapiens, UniProt P34949); assay: PMI enzyme inhibitors, confirmation, biochemical, fluorescence intensity (AID 1535)
T5 sequence (P34949 whole entry): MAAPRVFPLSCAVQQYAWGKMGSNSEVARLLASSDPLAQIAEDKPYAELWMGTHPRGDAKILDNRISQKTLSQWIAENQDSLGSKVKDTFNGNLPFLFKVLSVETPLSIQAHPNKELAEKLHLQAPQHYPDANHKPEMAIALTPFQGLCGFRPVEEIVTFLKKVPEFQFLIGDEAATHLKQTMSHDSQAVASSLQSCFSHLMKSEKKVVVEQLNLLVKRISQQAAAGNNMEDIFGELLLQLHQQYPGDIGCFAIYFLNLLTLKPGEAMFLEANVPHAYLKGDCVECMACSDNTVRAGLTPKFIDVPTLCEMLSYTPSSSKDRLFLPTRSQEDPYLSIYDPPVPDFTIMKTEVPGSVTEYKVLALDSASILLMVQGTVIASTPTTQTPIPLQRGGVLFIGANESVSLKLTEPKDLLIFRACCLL

Phosphomannomutase 2 = Phosphomannomutase 2 (Homo sapiens, UniProt O15305); assay: Counter screen SAR assay for PMM2 inhibitors via a fluorescence intensity assay. [Related pubchem assays (depositor defined):AID1545, AID1574]
Phosphomannomutase 2, sequence (O15305 whole entry): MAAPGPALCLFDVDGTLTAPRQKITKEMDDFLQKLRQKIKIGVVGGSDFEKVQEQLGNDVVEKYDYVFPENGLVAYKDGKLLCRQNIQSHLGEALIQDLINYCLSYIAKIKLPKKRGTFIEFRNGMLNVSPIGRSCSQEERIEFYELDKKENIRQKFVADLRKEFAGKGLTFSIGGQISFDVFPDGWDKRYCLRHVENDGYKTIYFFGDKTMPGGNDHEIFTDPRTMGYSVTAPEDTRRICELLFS

Cytochrome P450 3A4 = Cytochrome P450 3A4 (Homo sapiens, UniProt P08684); settings: Potency;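 further: confirmatory qHTS run detecting inhibitors and substrates of CYP3A4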
[8] = target: Voltage-gated inwardly rectifying potassium channel KCNH2 (Homo sapiens, UniProt Q12809); settings: Potency;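 further: confirmatory quantitative high-throughput screen measuring inhibition of hERG channel activity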
Voltage-gated inwardly rectifying potassium channel KCNH2, sequence (Q12809 whole entry): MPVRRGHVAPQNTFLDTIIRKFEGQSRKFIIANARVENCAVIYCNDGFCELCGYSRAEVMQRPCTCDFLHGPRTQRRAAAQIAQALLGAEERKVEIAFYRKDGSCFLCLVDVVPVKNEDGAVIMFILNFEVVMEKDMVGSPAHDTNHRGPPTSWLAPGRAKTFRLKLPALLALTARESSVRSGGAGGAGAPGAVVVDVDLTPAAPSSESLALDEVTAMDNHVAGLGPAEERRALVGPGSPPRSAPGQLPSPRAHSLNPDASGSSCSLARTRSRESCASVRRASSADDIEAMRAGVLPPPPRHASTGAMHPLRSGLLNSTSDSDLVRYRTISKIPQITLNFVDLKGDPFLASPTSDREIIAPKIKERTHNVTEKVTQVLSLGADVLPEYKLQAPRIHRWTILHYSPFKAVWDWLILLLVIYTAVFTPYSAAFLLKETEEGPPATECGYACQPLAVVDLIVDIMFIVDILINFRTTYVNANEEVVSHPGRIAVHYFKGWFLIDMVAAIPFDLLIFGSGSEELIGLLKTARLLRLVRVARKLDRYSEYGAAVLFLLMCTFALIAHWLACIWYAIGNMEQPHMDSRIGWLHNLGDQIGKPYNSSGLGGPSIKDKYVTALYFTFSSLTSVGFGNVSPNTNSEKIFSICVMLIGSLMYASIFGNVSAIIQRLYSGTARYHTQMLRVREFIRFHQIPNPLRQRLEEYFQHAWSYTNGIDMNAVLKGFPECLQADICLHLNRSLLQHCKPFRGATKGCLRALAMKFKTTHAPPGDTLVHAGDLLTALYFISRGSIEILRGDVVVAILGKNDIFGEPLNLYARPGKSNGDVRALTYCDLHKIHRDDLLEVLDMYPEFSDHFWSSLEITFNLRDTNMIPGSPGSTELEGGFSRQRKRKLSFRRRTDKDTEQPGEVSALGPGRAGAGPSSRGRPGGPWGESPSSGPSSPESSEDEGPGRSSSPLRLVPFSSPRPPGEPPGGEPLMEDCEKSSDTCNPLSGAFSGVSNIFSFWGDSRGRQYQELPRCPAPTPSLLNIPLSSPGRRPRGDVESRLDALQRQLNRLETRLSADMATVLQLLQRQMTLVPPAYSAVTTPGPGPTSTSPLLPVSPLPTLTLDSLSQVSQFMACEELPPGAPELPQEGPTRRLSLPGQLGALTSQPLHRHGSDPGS

[9] = target: T6, Voltage-gated N-type calcium channel alpha-1B subunit/Amyloid beta A4 precursor protein-binding family A member 1 (Homo sapiens, UniProt Q00975+Q02410); format: protein assay
T6 sequence (Q00975 whole entry): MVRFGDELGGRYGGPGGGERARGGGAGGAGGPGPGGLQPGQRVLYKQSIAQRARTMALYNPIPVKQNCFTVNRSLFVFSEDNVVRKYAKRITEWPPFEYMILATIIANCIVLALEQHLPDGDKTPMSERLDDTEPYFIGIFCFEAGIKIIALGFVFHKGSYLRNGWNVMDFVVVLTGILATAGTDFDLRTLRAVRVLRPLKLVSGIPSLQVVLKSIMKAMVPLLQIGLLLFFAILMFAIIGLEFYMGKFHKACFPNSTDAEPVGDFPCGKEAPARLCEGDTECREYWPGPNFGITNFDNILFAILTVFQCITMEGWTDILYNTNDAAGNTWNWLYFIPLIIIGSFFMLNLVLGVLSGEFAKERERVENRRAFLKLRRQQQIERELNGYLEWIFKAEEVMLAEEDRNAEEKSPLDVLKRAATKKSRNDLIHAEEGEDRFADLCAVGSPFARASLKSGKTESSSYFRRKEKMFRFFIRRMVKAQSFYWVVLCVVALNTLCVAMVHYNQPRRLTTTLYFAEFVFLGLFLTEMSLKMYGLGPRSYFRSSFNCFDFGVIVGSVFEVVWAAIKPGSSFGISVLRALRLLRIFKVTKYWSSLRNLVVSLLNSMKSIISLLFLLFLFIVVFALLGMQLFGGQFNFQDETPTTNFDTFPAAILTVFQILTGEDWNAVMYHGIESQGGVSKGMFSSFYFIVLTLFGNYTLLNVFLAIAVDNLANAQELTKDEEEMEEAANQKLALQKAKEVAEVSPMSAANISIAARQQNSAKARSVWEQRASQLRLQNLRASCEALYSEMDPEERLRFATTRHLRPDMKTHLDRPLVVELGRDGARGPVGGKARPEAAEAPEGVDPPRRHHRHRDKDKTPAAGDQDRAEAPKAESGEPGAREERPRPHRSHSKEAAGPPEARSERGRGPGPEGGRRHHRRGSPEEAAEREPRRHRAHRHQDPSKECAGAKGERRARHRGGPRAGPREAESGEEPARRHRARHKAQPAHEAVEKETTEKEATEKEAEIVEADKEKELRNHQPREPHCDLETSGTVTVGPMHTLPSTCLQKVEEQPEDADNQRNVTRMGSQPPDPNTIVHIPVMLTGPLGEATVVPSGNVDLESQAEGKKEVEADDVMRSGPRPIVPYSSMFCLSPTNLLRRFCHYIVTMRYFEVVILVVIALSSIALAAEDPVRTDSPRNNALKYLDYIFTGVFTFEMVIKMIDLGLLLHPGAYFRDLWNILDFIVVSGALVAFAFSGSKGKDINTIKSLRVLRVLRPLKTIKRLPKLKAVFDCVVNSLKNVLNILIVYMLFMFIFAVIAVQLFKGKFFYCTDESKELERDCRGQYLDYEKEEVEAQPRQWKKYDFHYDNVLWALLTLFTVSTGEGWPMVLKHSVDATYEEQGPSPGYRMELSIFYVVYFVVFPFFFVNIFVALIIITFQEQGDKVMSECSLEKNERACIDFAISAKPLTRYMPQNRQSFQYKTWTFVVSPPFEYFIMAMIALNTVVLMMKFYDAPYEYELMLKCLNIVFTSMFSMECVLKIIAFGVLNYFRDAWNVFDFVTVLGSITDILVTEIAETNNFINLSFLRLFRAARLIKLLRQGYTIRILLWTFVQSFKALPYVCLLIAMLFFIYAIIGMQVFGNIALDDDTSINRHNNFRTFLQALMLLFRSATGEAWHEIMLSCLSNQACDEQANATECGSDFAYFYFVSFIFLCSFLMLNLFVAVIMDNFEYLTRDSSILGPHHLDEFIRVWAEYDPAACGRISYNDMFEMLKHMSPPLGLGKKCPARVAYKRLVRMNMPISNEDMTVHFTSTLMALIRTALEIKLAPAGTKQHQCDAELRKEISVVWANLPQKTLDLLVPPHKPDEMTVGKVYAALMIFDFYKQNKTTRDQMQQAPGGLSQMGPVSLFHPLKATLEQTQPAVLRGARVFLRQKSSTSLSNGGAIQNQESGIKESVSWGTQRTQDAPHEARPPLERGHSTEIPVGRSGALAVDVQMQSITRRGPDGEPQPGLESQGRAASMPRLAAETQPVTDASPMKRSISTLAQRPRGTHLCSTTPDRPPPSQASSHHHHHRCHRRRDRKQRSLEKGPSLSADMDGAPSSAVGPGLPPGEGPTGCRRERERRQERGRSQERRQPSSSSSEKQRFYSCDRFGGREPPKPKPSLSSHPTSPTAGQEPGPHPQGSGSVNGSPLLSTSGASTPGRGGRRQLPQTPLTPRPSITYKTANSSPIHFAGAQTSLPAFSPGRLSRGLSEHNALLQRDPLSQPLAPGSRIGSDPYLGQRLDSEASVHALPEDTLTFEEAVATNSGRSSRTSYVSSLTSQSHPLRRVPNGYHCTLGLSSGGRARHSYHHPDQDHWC
T6 sequence (Q02410 whole entry): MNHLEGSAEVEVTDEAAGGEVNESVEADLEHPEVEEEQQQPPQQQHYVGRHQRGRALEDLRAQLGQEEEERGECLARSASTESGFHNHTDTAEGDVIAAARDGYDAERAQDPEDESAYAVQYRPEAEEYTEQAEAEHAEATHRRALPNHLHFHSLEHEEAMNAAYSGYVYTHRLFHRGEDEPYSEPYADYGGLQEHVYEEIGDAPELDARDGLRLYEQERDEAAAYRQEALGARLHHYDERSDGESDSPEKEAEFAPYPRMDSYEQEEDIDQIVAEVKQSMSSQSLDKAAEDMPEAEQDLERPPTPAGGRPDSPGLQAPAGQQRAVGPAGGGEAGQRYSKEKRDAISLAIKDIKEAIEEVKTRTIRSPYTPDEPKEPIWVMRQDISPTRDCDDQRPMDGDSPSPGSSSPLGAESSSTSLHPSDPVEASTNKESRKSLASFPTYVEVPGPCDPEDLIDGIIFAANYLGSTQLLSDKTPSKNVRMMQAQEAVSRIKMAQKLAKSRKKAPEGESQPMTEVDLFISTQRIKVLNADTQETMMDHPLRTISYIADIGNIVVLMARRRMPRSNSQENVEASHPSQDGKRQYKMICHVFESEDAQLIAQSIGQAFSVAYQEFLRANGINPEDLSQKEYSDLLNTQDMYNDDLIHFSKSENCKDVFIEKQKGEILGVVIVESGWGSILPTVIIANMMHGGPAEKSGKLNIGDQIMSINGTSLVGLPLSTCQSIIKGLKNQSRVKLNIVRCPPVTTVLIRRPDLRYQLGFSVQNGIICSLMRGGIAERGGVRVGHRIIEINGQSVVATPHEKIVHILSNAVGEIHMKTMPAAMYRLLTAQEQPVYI

[10] = target: Eukaryotic translation initiation factor 4E (Mus musculus, UniProt P63073); assay: eIF4E–eIF4G protein interaction inhibitors, dose response, biochemical, TR-FRET (AID 855); format: functional;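 further: potency for disrupting eIF4E binding to eIF4GI seen as loss of FRET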
Eukaryotic translation initiation factor 4E, sequence (P63073 whole entry): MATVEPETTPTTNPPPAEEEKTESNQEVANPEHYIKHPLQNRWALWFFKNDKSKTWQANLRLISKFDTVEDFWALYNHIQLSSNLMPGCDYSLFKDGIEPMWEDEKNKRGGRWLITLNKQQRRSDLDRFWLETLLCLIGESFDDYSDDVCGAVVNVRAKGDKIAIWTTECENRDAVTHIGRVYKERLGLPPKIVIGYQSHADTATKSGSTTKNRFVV

[11] = target: T6, Voltage-gated N-type calcium channel alpha-1B subunit/Amyloid beta A4 precursor protein-binding family A member 1; format: protein assay; remark: listed apart in the source

Cc1ccccc1Cn1c2ccccc2c2cnnc(O)c21
AC50 [1]: 30.2 µM (active)

C/C(=N\NC(=O)c1c(-c2ccccc2Cl)noc1C)c1cccc(NC(=O)C(C)C)c1
IC50 [2]: > 79.4 µM (inactive) | IC50 [3]: > 79.4 µM (inactive) | IC50 [4]: > 79.4 µM (inactive)

N#Cc1nc(-c2ccccc2Cl)oc1N1CCN(C(=O)c2ccco2)CC1
AC50 (Escherichia coli): 23.9 µM (active) | EC50 (Streptococcus): > 150 µM (not active) | EC50 [5]: > 150 µM (not active) | EC50 (Streptokinase A): > 150 µM (not active) | EC50 [6]: > 195 µM (not active)

O=[N+]([O-])c1ccc(/N=c2\ssnc2Cl)cc1
IC50 [7]: 23 µM (active) | IC50 (Phosphomannomutase 2): > 100 µM (inactive)

CC(C)(c1ccccc1)c1ccc(O)cc1
AC50 (Cytochrome P450 3A4): 20 µM (inconclusive) | AC50 [8]: 28.2 µM (inconclusive)

O=[N+]([O-])c1cc([N+](=O)[O-])c2ccccc2c1
AC50 [8]: 15.8 µM (inconclusive)

Clc1nss/c1=N\c1ccccc1
IC50 [9]: 8.07 µM (active) | IC50 [7]: 15.7 µM (active) | IC50 (Phosphomannomutase 2): > 100 µM (inactive) | IC50 [10]: 50 µM (inactive) | IC50 [11]: 8.44 µM (active)
